Reference: the supplement of paper PMC9938120

Experiments:
Assay in all cases: drug sensitivity score (DSS3, normalised partial AUC of % inhibition dose-response) (DSS (score)); higher = more sensitive (stronger inhibition of viability); extreme values may be limits of the assay
Settings in all cases: 72 h; library: FO5A; assay format: 2D, 384-well, CellTiter-Glo
FMOC09 = tested on: FMOC09 (patient-derived high-grade serous ovarian cancer cells)
Outline: (§1)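 Early-passage (under 10) patient-derived ovarian cancer cells were dispensed onto 384-well flat clear-bottom plates pre-plated with compounds at five concentrations spanning a 10,000-fold range, then incubated 72 h at 37 °C, 5% CO2. Viability was read with CellTiter-Glo, and the data were processed in Breeze. The drug sensitivity score is a partial area under the percent-inhibition dose-response curve divided by the log of the upper asymptote, with higher values meaning greater sensitivity.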

FMOC02_3 = tested on: FMOC02_3 (patient-derived low-grade serous ovarian cancer cells)
Outline: as §1

FMOC06 = tested on: FMOC06 (patient-derived mucinous ovarian cancer cells)
Outline: as §1

FMOC24 = tested on: FMOC24 (patient-derived high-grade serous ovarian cancer cells)
Outline: as §1

FMOC25_2 = tested on: FMOC25_2 (patient-derived low-grade serous ovarian cancer cells)
Outline: as §1

FMOC03 = tested on: FMOC03 (patient-derived mucinous ovarian cancer cells)
Outline: as §1

FMOC22 = tested on: FMOC22 (patient-derived mucinous ovarian cancer cells)
Outline: as §1

FMOC02_2 = tested on: FMOC02_2 (patient-derived low-grade serous ovarian cancer cells)
Outline: as §1

FMOC14 = tested on: FMOC14 (patient-derived high-grade serous ovarian cancer cells)
Outline: as §1

| SMILES | drug sensitivity score (FMOC09) | drug sensitivity score (FMOC02_3) | drug sensitivity score (FMOC06) | drug sensitivity score (FMOC24) | drug sensitivity score (FMOC25_2) | drug sensitivity score (FMOC03) | drug sensitivity score (FMOC22) | drug sensitivity score (FMOC02_2) | drug sensitivity score (FMOC14) |
| --- | --- | --- | --- | --- | --- | --- | --- | --- | --- |
| CC(C)(C)c1cc(NC(=O)Nc2ccc(Oc3ccnc4[nH]c(=O)cnc34)cc2F)n(-c2ccccc2)n1 | 3 | 7.1 | 3.6 | 1.6 | 17.8 | 5.3 | 3.8 | 0.2 | 0.1 |
| CN(C)CC#Cc1ccc(OCCCc2sc(N3CCc4cccc(C(=O)Nc5nc6ccccc6s5)c4C3)nc2C(=O)O)c(F)c1 | 9.7 | 34 | 25.5 | 36.8 | 33.4 | 20.7 | 13.5 | 27.6 | 21.3 |
| CN1CCN(C2CCC(n3cc(-c4ccc(Oc5ccccc5)cc4)c4c(N)ncnc43)CC2)CC1 (stereo not drawn) | 19.1 | 20 | 8.3 | 9.1 | 9.9 | 9.1 | 5.5 | 19.8 | 7.3 |
| CO[C@@H](C)Cn1c(=O)n(C)c2cnc3ccc(-c4cncc(C(C)(C)O)c4)cc3c21 | 7.4 | 17 | 11 | 7.6 | 15.7 | 9.2 | 9.1 | 15.3 | 8.3 |
| COc1ccc2[nH]cc(/C=C3\C(=O)Nc4ccc(NC(=O)CCN5CCCCC5)cc43)c2c1 | 5.4 | 10.8 | 6.4 | 12.7 | 8.6 | 7.6 | 6.1 | 12.7 | 5.1 |
| Cc1c(-c2ccc(N3CCc4cccc(C(=O)Nc5nc6ccccc6s5)c4C3)nc2C(=O)O)cnn1CC12CC3CC(CC(C3)C1)C2 | 3.1 | 26.7 | 16.8 | 23 | 24 | 12.5 | 5.7 | 14.5 | 8.8 |
| Cc1sc2c(c1C)C(c1ccc(Cl)cc1)=N[C@@H](CC(=O)Nc1ccc(OCCOCCOCCOCCNc3cccc4c3C(=O)N(C3CCC(=O)NC3=O)C4=O)cc1)c1nnc(C)n1-2 (stereo partly drawn) [ARV-825] | 8.3 | 13 | 14.9 | 6 | 17.1 | 4 | 3.6 | 7.1 | 11.4 |
| C=CCn1c(=O)c2cnc(Nc3ccc(N4CCN(C)CC4)cc3)nc2n1-c1cccc(C(C)(C)O)n1 [AZD1775] | 7.9 | 17.5 | 8.5 | 8.15 | 15.2 | 6.1 | 6.9 | 10.8 | 14.6 |
| Cc1[nH]nc(C(F)(F)F)c1Cc1sc2c(c1C(=O)N1C[C@](C)(O)CO1)c(=O)n(C)c(=O)n2C(C)C [AZD3965] | 0 | 0.8 | 0 | 1.5 | 0 | 0 | 0 | 0 | 0 |
| C[C@@H]1COCCN1c1cc(C2([S@](C)(=N)=O)CC2)nc(-c2cc[nH]c3nccc2-3)n1 [AZD6738] | 7.7 | 11.1 | 6.9 | 8 | 12.5 | 5 | 7.4 | 7.8 | 10.7 |
| CCN(CC)CCNC(=O)c1c(C)[nH]c(/C=C2\C(=O)Nc3ccc(-c4csc(-c5ccccc5)n4)cc32)c1C [Amcasertib] | 0.3 | 0 | 0.5 | 8.9 | 0.1 | 1.2 | 2.7 | 1.6 | 0.1 |
| O=C1CCc2c(Oc3ccc4c(c3)[C@@H]3[C@H](O4)[C@H]3c3nc4cc(C(F)(F)F)ccc4[nH]3)ccnc2N1 [BGB-283] | 4.9 | 6.8 | 4.8 | 0.9 | 5.8 | 4.5 | 3.7 | 7.4 | 1 |
| Cc1sc2c(c1C)C(c1ccc(Cl)cc1)=N[C@@H](CC(=O)Nc1ccc(O)cc1)c1nnc(C)n1-2 [Birabresib] | 3.6 | 18.5 | 5.1 | 7.65 | 8.5 | 5.5 | 6.7 | 13.5 | 1.1 |
| CCN1C(=O)CNc2ncc(-c3ccc(-c4nc[nH]n4)nc3C)nc21 [CC-115] | 6.7 | 9.5 | 10.9 | 6.2 | 16 | 8 | 6.3 | 14.2 | 8.9 |
| CO[C@H]1CC[C@H](N2C(=O)CNc3ncc(-c4ccc(C(C)(C)O)nc4)nc32)CC1 [CC-223] | 3.5 | 9.2 | 5.1 | 2.4 | 8.6 | 4 | 3 | 8.6 | 3.5 |
| Cc1noc2c1-c1ccccc1C(c1ccc(Cl)cc1)=N[C@H]2CC(N)=O [CPI-0610] | 4.3 | 12.5 | 0.6 | 6.4 | 4 | 4.3 | 3.3 | 7.8 | 1.5 |
| C[C@H]1O[C@@H](O[C@H]2[C@@H](O)C[C@H](O[C@H]3[C@@H](O)C[C@H](O[C@H]4CC[C@@]5(C)[C@H](CC[C@@H]6[C@@H]5C[C@@H](O)[C@]5(C)[C@@H](C7=CC(=O)OC7)CC[C@]65O)C4)O[C@@H]3C)O[C@@H]2C)C[C@H](O)[C@@H]1O [Digoxin] | 14.3 | 14.4 | 10.7 | 17.1 | 18.3 | 9.6 | 9.7 | 11.1 | 10.3 |
